The structures appear in SMILES notation. Where “and” joins values, the source holds several entries; their conditions need not be identical. Equal values may be shown once.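 How tested: cells in 96-well plates exposed to compound for 48 hours at five concentrations. GI50 is the concentration that inhibits growth by half. The concentration for full growth arrest is given as TGI.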 Where only a bound is given, the exact number is not on record here.

Some test systems named below: A498 renal; HCT-15 colon; HOP-62 NSCLC; K-562 leukemia; PC-3 prostate; RPMI-8226 leukemia; SF-268 CNS; SF-295 CNS; UACC-257 melanoma; UACC-62 melanoma.
Common to all, as to experiment: DTP human tumour cell line panel, 48 h

As a reminder, the TGI is the concentration at which net growth stops. Low values mean greater sensitivity of the cells, high ones lower sensitivity of the cells. On to `NS(=O)(=O)c1ccc(NC(=O)Nc2cccc3ccccc23)cc1`, for which the TGI with A498 renal was 52.2 µM; in the assay with HCT-15 colon it was more than 100 µM; in the assay on HOP-62 NSCLC it was more than 100 µM; with K-562 leukemia, more than 100 µM; in the assay with PC-3 prostate, 44 µM; in the assay on RPMI-8226 leukemia it was more than 100 µM. Further, the TGI with SF-268 CNS was 39.3 µM; with SF-295 CNS, more than 100 µM; in the assay on UACC-257 melanoma, more than 100 µM; in the assay with UACC-62 melanoma, 69.4 µM.
For orientation: GI50 means the concentration giving 50% growth inhibition. Turning to `COc1cc(-c2cc(-c3ccc(Nc4nc(Nc5ccc(Cl)cc5)nc(Nc5ccc(Cl)cc5)n4)cc3)no2)cc(OC)c1OC`, the GI50 with A498 renal is 2.71 µM; in the assay on HCT-15 colon it was 18.9 µM; in the assay on HOP-62 NSCLC, 11 µM; with K-562 leukemia it was 1.98 µM; in the assay on PC-3 prostate it was 0.565 µM; in the assay with RPMI-8226 leukemia it was 1.75 µM. Also, the GI50 in the assay on SF-268 CNS is 6.05 µM; with SF-295 CNS it was 35.1 µM; in the assay with UACC-257 melanoma it was 23.5 µM; in the assay with UACC-62 melanoma, 71.7 µM. The TGI in the assay with A498 renal is more than 100 µM; with HCT-15 colon, more than 100 µM; in the assay with HOP-62 NSCLC it was 84.2 µM; in the assay with K-562 leukemia it was 19.4 µM; with PC-3 prostate it was 9.19 µM; in the assay with RPMI-8226 leukemia, more than 100 µM. Besides, the TGI with SF-268 CNS, with SF-295 CNS, in the assay on UACC-257 melanoma and in the assay on UACC-62 melanoma was more than 100 µM each time.
As to `COc1ccc(C2CC(=O)Nc3c2c(C)nn3-c2nc3ccccc3[nH]2)cc1OC` (stereo not drawn), the GI50 with A498 renal is 2.01 µM; with HCT-15 colon, 4.76 µM; with HOP-62 NSCLC it was 4.32 µM; in the assay with K-562 leukemia it was 4.81 µM; in the assay on PC-3 prostate, 4.27 µM; with RPMI-8226 leukemia it was 3.08 µM. The GI50 was 5.07 µM in the assay with SF-268 CNS, 1.77 µM in the assay with SF-295 CNS, 6.46 µM with UACC-257 melanoma and 3.15 µM in the assay on UACC-62 melanoma. Moreover, the TGI is 13.4 µM in the assay with A498 renal; more than 58.9 µM with HCT-15 colon; 24.4 µM with HOP-62 NSCLC; more than 100 µM in the assay with K-562 leukemia; 63.6 µM in the assay on PC-3 prostate; 8.68 µM in the assay with RPMI-8226 leukemia. The TGI was more than 69.5 µM in the assay with SF-268 CNS, 6.91 µM in the assay with SF-295 CNS, 55.4 µM in the assay on UACC-257 melanoma and 12.8 µM with UACC-62 melanoma.
With `Nc1cc2c3ccccc3ccc2c2ccccc12`, the GI50 with A498 renal was more than 100 µM; with HCT-15 colon, 3.92 µM; with HOP-62 NSCLC, 30.6 µM; in the assay on K-562 leukemia it was 19.3 µM; in the assay with PC-3 prostate, 7.78 µM; in the assay with RPMI-8226 leukemia it was more than 45.9 µM. For the same compound, the GI50 in the assay with SF-268 CNS, in the assay with SF-295 CNS, with UACC-257 melanoma and in the assay on UACC-62 melanoma was more than 100 µM each time. Besides, the TGI in the assay with A498 renal, in the assay on HCT-15 colon, in the assay with HOP-62 NSCLC, in the assay on K-562 leukemia, in the assay on PC-3 prostate and in the assay with RPMI-8226 leukemia was more than 100 µM throughout. The TGI with SF-268 CNS, in the assay with SF-295 CNS, with UACC-257 melanoma and in the assay on UACC-62 melanoma was more than 100 µM each time.
In the case of `O=C(Nc1ccc(-c2cn3ccccc3n2)cc1)c1cc(Br)ccc1O`, the TGI in the assay on A498 renal, in the assay on HCT-15 colon, in the assay with HOP-62 NSCLC, with K-562 leukemia, in the assay with PC-3 prostate and in the assay on RPMI-8226 leukemia was more than 100 µM each time. The TGI in the assay with SF-268 CNS, in the assay with SF-295 CNS, with UACC-257 melanoma and with UACC-62 melanoma was more than 100 µM each time.
Turning to `CCN1C(=O)N(CC)C2C1NN=c1s/c(=C\c3ccc(Br)cc3)c(=O)n12` (stereo not drawn), the GI50 is 0.0833 µM in the assay with A498 renal; 0.0598 µM in the assay on HCT-15 colon; 0.305 µM with HOP-62 NSCLC; 0.0453 µM in the assay with K-562 leukemia; 0.168 µM with PC-3 prostate; 0.269 µM in the assay on RPMI-8226 leukemia. For the same compound, the GI50 with SF-268 CNS was 0.852 µM; in the assay with SF-295 CNS it was 0.0738 µM; in the assay with UACC-257 melanoma it was 0.849 µM; with UACC-62 melanoma it was 0.0557 µM. In addition, the TGI with A498 renal, in the assay with HCT-15 colon, with HOP-62 NSCLC, in the assay on K-562 leukemia, with PC-3 prostate and in the assay with SF-268 CNS was more than 100 µM throughout. Also, the TGI in the assay on SF-295 CNS, with UACC-257 melanoma and in the assay on UACC-62 melanoma was more than 100 µM each time.
As to `CC1(/C=C/c2ccc(-c3ccccc3)cc2)CCn2cnc3ncnc(c32)N1O` (stereo not drawn), the GI50 in the assay on A498 renal was 0.0387 µM; with HCT-15 colon, 0.146 µM; with HOP-62 NSCLC, 0.366 µM; in the assay with K-562 leukemia, 0.359 µM; with PC-3 prostate, 0.57 µM; in the assay on RPMI-8226 leukemia it was 0.467 µM. Moreover, the GI50 with SF-268 CNS is 0.405 µM; in the assay on SF-295 CNS, 0.419 µM; with UACC-257 melanoma, 0.445 µM; in the assay with UACC-62 melanoma it was 0.356 µM. Also, the TGI was 3.99 µM in the assay with A498 renal; 33.5 µM in the assay with HCT-15 colon; 16.4 µM in the assay on HOP-62 NSCLC; more than 66.7 µM in the assay with K-562 leukemia; 34.8 µM in the assay with PC-3 prostate; 22.7 µM with RPMI-8226 leukemia. For the same compound, the TGI was 15.8 µM with SF-268 CNS, 17.1 µM with SF-295 CNS, 25.3 µM in the assay with UACC-257 melanoma and 2.27 µM in the assay on UACC-62 melanoma.
In the case of `CN1CCN(CCCn2c3c(sc4ncccc43)c(=O)n3nnc(-c4ccccc4)c23)CC1`, the GI50 with A498 renal is 6.7 µM; in the assay with HCT-15 colon, 1.87 µM; in the assay on HOP-62 NSCLC, 1.63 µM; in the assay with K-562 leukemia, 0.593 µM; with PC-3 prostate, 1.61 µM; in the assay on RPMI-8226 leukemia it was 2.08 µM. For the same compound, the GI50 is 1.68 µM in the assay on SF-268 CNS, 1.73 µM in the assay on SF-295 CNS, 5.81 µM in the assay with UACC-257 melanoma and 17.6 µM in the assay on UACC-62 melanoma. Further, the TGI in the assay with A498 renal worked out at 21.3 µM; in the assay with HCT-15 colon it was 4.3 µM; in the assay on HOP-62 NSCLC, 3.4 µM; in the assay with K-562 leukemia, 1.56 µM; with PC-3 prostate it was 4.03 µM; in the assay with RPMI-8226 leukemia, 5.3 µM. For the same compound, the TGI is 3.32 µM in the assay with SF-268 CNS, 3.36 µM in the assay on SF-295 CNS, 10.5 µM in the assay on UACC-257 melanoma and 33.8 µM in the assay with UACC-62 melanoma.
`Cn1cc(-c2nc(-c3c[nH]c4ccccc34)cs2)c2cccnc21`: the GI50 in the assay on A498 renal is 0.315 µM; in the assay with HCT-15 colon, 0.221 µM; in the assay with HOP-62 NSCLC, 0.626 µM; in the assay with K-562 leukemia it was 0.106 µM; with PC-3 prostate, 0.41 µM; in the assay on RPMI-8226 leukemia, 0.541 µM. The GI50 was 0.689 µM in the assay with SF-268 CNS, 0.268 µM with SF-295 CNS, 14.2 µM in the assay on UACC-257 melanoma and 0.388 µM in the assay with UACC-62 melanoma. The TGI was 6.1 µM with A498 renal; more than 100 µM with HCT-15 colon; 59.9 µM with HOP-62 NSCLC; more than 100 µM in the assay with K-562 leukemia; more than 100 µM in the assay on PC-3 prostate; 32.3 µM with RPMI-8226 leukemia. Further, the TGI was more than 100 µM with SF-268 CNS, 19.8 µM with SF-295 CNS, more than 100 µM in the assay on UACC-257 melanoma and more than 72.9 µM in the assay with UACC-62 melanoma.
On to `Nc1[nH]c(=S)[nH]c(=O)c1N=Nc1c(Br)cc(S(N)(=O)=O)cc1Br`, for which the TGI in the assay with A498 renal, with HCT-15 colon, with HOP-62 NSCLC, in the assay with K-562 leukemia, in the assay with PC-3 prostate and in the assay with RPMI-8226 leukemia was more than 100 µM each time. Further, the TGI in the assay on SF-268 CNS, with SF-295 CNS, in the assay with UACC-257 melanoma and with UACC-62 melanoma was more than 100 µM throughout.
Regarding `OCC1OC(N2CCN(C3OC(CO)C(O)C(O)C3O)CC2)C(O)C(O)C1O` (stereo not drawn), the TGI in the assay on A498 renal, with HCT-15 colon, in the assay on HOP-62 NSCLC, in the assay with K-562 leukemia, with PC-3 prostate and with RPMI-8226 leukemia was more than 100 µM in each case. In addition, the TGI with SF-268 CNS, with SF-295 CNS, in the assay with UACC-257 melanoma and in the assay with UACC-62 melanoma was more than 100 µM throughout.
Regarding `Cn1cc(-c2[nH]c3cc(NC(=O)[C@H](N)C4CCCCC4)cc4c3c2C=NNC4=O)cn1`, the GI50 was 0.0542 µM and 0.0975 µM with A498 renal; 12 µM and 5.1 µM in the assay on HCT-15 colon; 0.401 µM and 0.343 µM in the assay with HOP-62 NSCLC; 0.193 µM and 0.205 µM with K-562 leukemia; 0.72 µM and 1.96 µM in the assay with PC-3 prostate; 3.18 µM and 3.24 µM with RPMI-8226 leukemia. The GI50 in the assay with SF-268 CNS was 0.305 µM and 0.324 µM; in the assay on SF-295 CNS it was 0.273 µM and 0.318 µM; with UACC-257 melanoma, 4.16 µM and > 6.97 µM; in the assay with UACC-62 melanoma, 0.484 µM and 0.704 µM. Further, the TGI was 0.352 µM and 0.579 µM in the assay with A498 renal; more than 72 µM in the assay on HCT-15 colon; 12.3 µM and > 10 µM in the assay with HOP-62 NSCLC; 1.78 µM and > 10 µM in the assay with K-562 leukemia; 18.3 µM and > 10 µM in the assay on PC-3 prostate; 11.5 µM and > 10 µM with RPMI-8226 leukemia. Further, the TGI in the assay with SF-268 CNS was 13.1 µM and > 10 µM; in the assay on UACC-257 melanoma it was 18.8 µM and > 10 µM; with UACC-62 melanoma it was 18.7 µM and > 10 µM.
As for `O=C(COc1ccc(Cl)cc1Cl)NNc1ccc([N+](=O)[O-])cc1`, the GI50 is 21.6 µM in the assay on A498 renal; more than 100 µM in the assay on HCT-15 colon; 19.7 µM in the assay on HOP-62 NSCLC; 39 µM in the assay on K-562 leukemia; more than 100 µM in the assay on PC-3 prostate; more than 100 µM in the assay on RPMI-8226 leukemia. The GI50 in the assay with SF-268 CNS was 36.9 µM; with SF-295 CNS, 19.7 µM; in the assay with UACC-257 melanoma, 99.6 µM; with UACC-62 melanoma, 27.7 µM. For the same compound, the TGI is 53.8 µM in the assay on A498 renal; more than 100 µM in the assay on HCT-15 colon; 38.6 µM with HOP-62 NSCLC; more than 100 µM with K-562 leukemia; more than 100 µM in the assay on PC-3 prostate; more than 100 µM in the assay on RPMI-8226 leukemia. The TGI with SF-268 CNS is more than 100 µM; in the assay on SF-295 CNS it was 40.1 µM; in the assay with UACC-257 melanoma, more than 100 µM; with UACC-62 melanoma it was more than 100 µM.

These data come from PubChem BioAssay (NCI).
